Results: article PMC3197876 (Journal of medicinal chemistry, 2011)
“Also recorded” adds a separate entry of the source. Like-named read-outs stand apart in the source and are kept apart here.

Legend:
BALB/cJ male mice = format: in vivo, mouse
β2* nAChR = β2* nAChR (Mus musculus, UniProt O70174+Q9ERK7); experiment: β2* nAChR ex vivo receptor occupancy in the thalamus; details: for receptor occupancy at 3 mg/kg: mouse, ip, read-out: ex vivo receptor occupancy at β2* receptors
α4β2 nAChR = α4β2 nAChR (Rattus norvegicus, UniProt P09483+P12390); format: binding; details: ratio of Ki values
α4β2* nAChR (native) = α4β2* nAChR (native) (Rattus norvegicus, UniProt P09483+P12390); experiment: [3H]epibatidine binding competition, rat forebrain membranes
5-HT5A = 5-HT5A (Homo sapiens, UniProt P47898); experiment: PDSP primary binding screen; details: read-out: %Inhibition 5-HT5A
β3 adrenergic receptor = β3 adrenergic receptor (Homo sapiens, UniProt P13945); experiment: PDSP primary binding screen; details: read-out: %Inhibition β3
[1] = target: H1 histaminergic receptor (Homo sapiens, UniProt P35367); experiment: PDSP primary binding screen; details: read-out: %Inhibition H1
M5 muscarinic receptor = target: T1, M5 muscarinic receptor (Homo sapiens, UniProt P08912); experiment: PDSP primary binding screen; details: read-out: %Inhibition M5
T1 sequence (P08912 1-532): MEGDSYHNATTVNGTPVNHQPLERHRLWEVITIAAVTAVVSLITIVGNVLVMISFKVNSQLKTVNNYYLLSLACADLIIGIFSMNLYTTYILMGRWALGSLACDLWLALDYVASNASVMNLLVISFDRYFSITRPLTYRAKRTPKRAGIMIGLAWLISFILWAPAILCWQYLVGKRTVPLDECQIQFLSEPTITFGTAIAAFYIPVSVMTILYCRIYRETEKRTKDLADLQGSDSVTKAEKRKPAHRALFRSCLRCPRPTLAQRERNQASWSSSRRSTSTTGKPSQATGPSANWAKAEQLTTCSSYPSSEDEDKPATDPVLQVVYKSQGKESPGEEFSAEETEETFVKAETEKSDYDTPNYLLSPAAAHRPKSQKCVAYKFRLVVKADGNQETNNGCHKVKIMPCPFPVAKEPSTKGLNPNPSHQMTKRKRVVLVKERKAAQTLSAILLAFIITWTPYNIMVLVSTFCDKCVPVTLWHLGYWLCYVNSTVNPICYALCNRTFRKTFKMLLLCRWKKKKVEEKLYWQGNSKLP

[2] = target: DAT: Dopamine Transporter (Homo sapiens, UniProt Q01959); experiment: PDSP primary binding screen; details: read-out: %Inhibition DAT
[3] = In vitro metabolism with human liver microsomes; format: in vitro ADME; details: 1 µM
[4] = In vitro metabolism with mouse liver microsomes; format: in vitro ADME; details: 1 µM
[5] = tested on: nine different CYP450 enzymes; experiment: CYP450 inhibition; format: in vitro ADME
human α4β2-nAChR = human α4β2-nAChR (Homo sapiens, UniProt P17787+P43681); experiment: 86Rb+ efflux assay in SH-EP1-hα4β2 cells; details: 86Rb+ ion flux assay
[6] = intraperitoneal, 1 mg/kg, 30 min before test

Cl.OCCc1cc(-c2cncc(OC[C@@H]3CCN3)c2)on1 [Compound 5, 2-[5-[5-(2(S)-Azetidinylmethoxyl)-3-pyridyl]-3-isoxazolyl]ethanol Hydrochloride]
immobility in forced swim test (BALB/cJ male mice; [6]): significant reduction in immobility | immobility in forced swim test (BALB/cJ male mice; intraperitoneal, 3 mg/kg): significant reduction in immobility | immobility in forced swim test (BALB/cJ male mice; oral, 10 mg/kg): decreased the time immobile | immobility in forced swim test (Figure 5) (BALB/cJ male mice; oral, all doses tested): efficacious | receptor occupancy (Figure 4, in words) (β2* nAChR; 3 mg/kg intraperitoneal, mice): higher receptor occupancy | receptor occupancy at 3 mg/kg (β2* nAChR): ~80%

CN[C@H]1CC[C@@H](c2ccc(Cl)c(Cl)c2)c2ccccc21 [sertraline, reference compound]
immobility in forced swim test (Figure 5) (BALB/cJ male mice; positive control in oral study, 10 or 20 mg/kg): expected decrease in immobility | immobility in forced swim test (Figure 3) (BALB/cJ male mice; positive control, intraperitoneal, 10 or 20 mg/kg): expected decrease in immobility

Cl.OCCCc1cc(-c2cncc(OC[C@@H]3CCN3)c2)on1 [Compound 3, 3-[5-[5-(2(S)-Azetidinylmethoxy)-3-pyridyl]-3-isoxazolyl]-1-propanol Hydrochloride]
selectivity for α4β2- over α3β4-nAChR (α4β2 nAChR): ~15,000 fold | Ki (α4β2* nAChR (native)): 1.9 ± 0.3 nM | inhibition at 10 µM (5-HT5A): -17.8% | inhibition at 10 µM (β3 adrenergic receptor): -17.7% | inhibition at 10 µM [1]: -19.9% | inhibition at 10 µM (M5 muscarinic receptor): -18.9% | inhibition at 10 µM [2]: -10.1% | immobility in forced swim test (BALB/cJ male mice; [6]): insignificant trend | immobility in forced swim test (BALB/cJ male mice; intraperitoneal, 3 mg/kg): significant reduction in immobility | immobility in forced swim test (BALB/cJ male mice; oral, 10 mg/kg): decreased the time immobile; also recorded: reduced immobility | immobility in forced swim test (BALB/cJ male mice; oral, 1 and 3 mg/kg): failed to show significant activity | immobility in forced swim test (Figure 5) (BALB/cJ male mice; oral, lowest dose): slightly higher | receptor occupancy at 3 mg/kg (β2* nAChR): 60 to 70% | metabolism with human liver microsomes [3]: no detectable metabolism | metabolism with mouse liver microsomes [4]: no detectable metabolism | inhibitory potential towards nine different CYP450 enzymes [5]: no significant inhibition | functional characterization at α4β2-nAChRs (human α4β2-nAChR): partial agonist

Cl.OCc1cc(-c2cncc(OC[C@@H]3CCN3)c2)on1 [Compound 4, 5-[5-(2(S)-Azetidinylmethoxy)-3-pyridyl]-3-isoxazolylmethanol Hydrochloride]
selectivity for α4β2- over α3β4-nAChR (α4β2 nAChR): 20,000 fold | Ki (α4β2* nAChR (native)): 0.61 ± 0.1 nM | immobility in forced swim test (Figure 3) (BALB/cJ male mice; intraperitoneal, highest dose only): insignificant trend | receptor occupancy at 3 mg/kg (β2* nAChR): 60 to 70% | functional characterization at α4β2-nAChRs (human α4β2-nAChR): partial agonists
